System: neural progenitor cells (NPCs)
Assay: NPCs co-cultured with microglia pre-activated by aggregated Aβ and cytokines (β-III-tubulin)
Assay type: cell-based, mouse
Conditions: 10 days co-culture; Aβ 5 μM, IFN-γ 10 ng/ml
Procedure: (xlvi) Reagents. Recombinant mouse IFN-γ and IL-4 (both containing endotoxin at a concentration below 0.1 ng/μg cytokine) were obtained from R&D Systems (Minneapolis, Minn.). β-amyloid peptides [amyloid protein fragment 1-40 and 1-42 (Aβ1-40/1-42)] were purchased from Sigma-Aldrich, St. Louis, Mo. The Aβ peptides were dissolved in endotoxin-free water, and Aβ aggregates were formed by incubation of Aβ, as described (Ishii et al., 2000).
(li) Neural progenitor cell culture. Coronal sections (2 mm thick) of tissue containing the subventricular zone of the lateral ventricle were obtained from the brains of adult C57B1/6J mice. The tissue was minced and then incubated for digestion at 37° C., 5% CO2 for 45 min in Earle's balanced salt solution containing 0.94 mg/ml papain (Worthington, Lakewood, N.J.) and 0.18 mg/ml of L-cysteine and EDTA. After centrifugation at 110×g for 15 min at room temperature, the tissue was mechanically dissociated by pipette trituration. Cells obtained from single-cell suspensions were plated (3500 cells/cm^2) in 75-cm^2 Falcon tissue-culture flasks (BD Biosciences, San Diego, Calif.), in NPC-culturing medium [Dulbecco's modified Eagles's medium (DMEM)/F12 medium (Gibco/Invitrogen, Carlsbad, Calif.) containing 2 mM L-glutamine, 0.6% glucose, 9.6 μg/ml putrescine, 6.3 ng/ml progesterone, 5.2 ng/ml sodium selenite, 0.02 mg/ml insulin, 0.1 mg/ml transferrin, 2 μg/ml heparin (all from Sigma-Aldrich, Rehovot, Israel), fibroblast growth factor-2 (human recombinant, 20 ng/ml), and epidermal growth factor (human recombinant, 20 ng/ml; both from Peprotech, Rocky Hill, N.J.)]. Spheres were passaged every 4-6 days and replated as single cells. Green fluorescent protein (GFP)-expressing NPCs were obtained as previously described (Pluchino et al., 2003).
(lii) Primary microglial culture. Brains from neonatal (P0-P1) C57B1/6J mice were stripped of their meninges and minced with scissors under a dissecting microscope (Zeiss, Stemi DV4, Germany) in Leibovitz-15 medium (Biological Industries, Kibbutz Beit Ha-Emek, Israel). […]

With IFN-γ as the substance, how does the “GFP^+/βIIIT^+ cells (neurogenesis) with microglia activated by the agent” value read?
Its value is “dramatic”.
